Measurements reported in patent publication US6358885B1, “Substituted phenylheterocyclic herbicides” (Mississippi State University, priority 1992, dated 2002).

How the values were obtained:
Assay in all cases: Test B preemergence/postemergence greenhouse plant response rating 0 to 10
[1] = test system: barnyardgrass; type: in vivo, Echinochloa crus-galli; details: for Plant response rating, Barnyardgrass: 0 to 10 scale
Procedure, shortened: (§1)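 Planted seeds are treated preemergence with compound dissolved in a non-phytotoxic solvent, while postemergence applications go onto plants of two to eighteen cm. Plants stay in the greenhouse twelve to sixteen days and are then rated visually relative to controls.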

[2] = test system: cheatgrass; type: in vivo, Bromus secalinus; details: for Plant response rating, Cheatgrass: 0 to 10 scale
Procedure, shortened: as §1

[3] = test system: chickweed; type: in vivo, Stellaria media; details: for Plant response rating, Chickweed: 0 to 10 scale
Procedure, shortened: as §1

[4] = test system: corn; type: in vivo, Zea mays; details: for Plant response rating, Corn: 0 to 10 scale
Procedure, shortened: as §1

[5] = test system: crabgrass; type: in vivo, Digitaria spp.; details: for Plant response rating, Crabgrass: 0 to 10 scale
Procedure, shortened: as §1

[6] = test system: giant foxtail; type: in vivo, Setaria faberii; details: for Plant response rating, Giant foxtail: 0 to 10 scale; for Plant response rating (0 to 10 scale), Giant foxtail: Rate 100 g/ha
Procedure, shortened: as §1

[7] = test system: morningglory; type: in vivo, Ipomoea hederacea; details: for Plant response rating, Morningglory: 0 to 10 scale; for Plant response rating (0 to 10 scale), Morningglory: Rate 100 g/ha
Procedure, shortened: as §1

[8] = test system: rape; type: in vivo, Brassica napus; details: for Plant response rating, Rape: 0 to 10 scale; for Plant response rating (0 to 10 scale), Rape: Rate 100 g/ha
Procedure, shortened: as §1

[9] = test system: velvetleaf; type: in vivo, Abutilon theophrasti; details: for Plant response rating, Velvetleaf: 0 to 10 scale
Procedure, shortened: as §1

In the case of `Clc1ccc(-c2nc3n(c2Cl)CCC=C3)c(Cl)c1` [Compound 1], the “Plant response rating (0 to 10 scale), Barnyardgrass” value ([1]; POSTEMERGENCE, Rate 50 g/ha) is reported as 2, the “Plant response rating, Barnyardgrass” value ([1]; POSTEMERGENCE, Rate 200 g/ha) is reported as 3 and the “Plant response rating, Barnyardgrass” value ([1]; PREEMERGENCE, Rate 50 g/ha) is reported as 0. For the same molecule, the “Plant response rating, Barnyardgrass” value ([1]; Rate 200 g/ha, PREEMERGENCE) was 0, the “Plant response rating (0 to 10 scale), Cheatgrass” value ([2]; POSTEMERGENCE, Rate 50 g/ha) was 2 and the “Plant response rating, Cheatgrass” value ([2]; POSTEMERGENCE, Rate 200 g/ha) was 2. For the same molecule, the “Plant response rating, Cheatgrass” value ([2]; PREEMERGENCE, Rate 50 g/ha) was 0, the “Plant response rating, Cheatgrass” value ([2]; Rate 200 g/ha, PREEMERGENCE) was 0 and the “Plant response rating (0 to 10 scale), Chickweed” value ([3]; POSTEMERGENCE, Rate 50 g/ha) was 0. For the same molecule, the “Plant response rating, Chickweed” value ([3]; POSTEMERGENCE, Rate 200 g/ha) was 2, the “Plant response rating, Chickweed” value ([3]; PREEMERGENCE, Rate 50 g/ha) was 0 and the “Plant response rating, Chickweed” value ([3]; Rate 200 g/ha, PREEMERGENCE) was 0. The “Plant response rating (0 to 10 scale), Corn” value ([4]; POSTEMERGENCE, Rate 50 g/ha) was 2, the “Plant response rating, Corn” value ([4]; POSTEMERGENCE, Rate 200 g/ha) was 2 and the “Plant response rating, Corn” value ([4]; PREEMERGENCE, Rate 50 g/ha) was 0. The “Plant response rating, Corn” value ([4]; Rate 200 g/ha, PREEMERGENCE) was 0, the “Plant response rating (0 to 10 scale), Crabgrass” value ([5]; POSTEMERGENCE, Rate 50 g/ha) was 2 and the “Plant response rating, Crabgrass” value ([5]; POSTEMERGENCE, Rate 200 g/ha) was 3. The “Plant response rating, Crabgrass” value ([5]; PREEMERGENCE, Rate 50 g/ha) was 0, the “Plant response rating, Crabgrass” value ([5]; Rate 200 g/ha, PREEMERGENCE) was 0 and the “Plant response rating, Giant foxtail” value ([6]; POSTEMERGENCE, Rate 50 g/ha) was 3. For the same molecule, the “Plant response rating, Giant foxtail” value ([6]; POSTEMERGENCE, Rate 200 g/ha) was 3, the “Plant response rating, Giant foxtail” value ([6]; PREEMERGENCE, Rate 50 g/ha) was 0 and the “Plant response rating, Giant foxtail” value ([6]; Rate 200 g/ha, PREEMERGENCE) was 0. The “Plant response rating, Morningglory” value ([7]; POSTEMERGENCE, Rate 50 g/ha) was 6, the “Plant response rating, Morningglory” value ([7]; POSTEMERGENCE, Rate 200 g/ha) was 7 and the “Plant response rating, Morningglory” value ([7]; PREEMERGENCE, Rate 50 g/ha) was 0. The “Plant response rating, Morningglory” value ([7]; Rate 200 g/ha, PREEMERGENCE) was 0, the “Plant response rating, Rape” value ([8]; POSTEMERGENCE, Rate 50 g/ha) was 1 and the “Plant response rating, Rape” value ([8]; POSTEMERGENCE, Rate 200 g/ha) was 3. The “Plant response rating, Rape” value ([8]; PREEMERGENCE, Rate 50 g/ha) was 0, the “Plant response rating, Rape” value ([8]; Rate 200 g/ha, PREEMERGENCE) was 0 and the “Plant response rating, Velvetleaf” value ([9]; POSTEMERGENCE, Rate 50 g/ha) was 3. For the same molecule, the “Plant response rating, Velvetleaf” value ([9]; POSTEMERGENCE, Rate 200 g/ha) was 8, the “Plant response rating, Velvetleaf” value ([9]; PREEMERGENCE, Rate 50 g/ha) was 0 and the “Plant response rating, Velvetleaf” value ([9]; Rate 200 g/ha, PREEMERGENCE) was 0.

In the case of `Clc1ccc(-c2nc3n(c2Br)CCCC3)c(Cl)c1` [Compound 2], the “Plant response rating (0 to 10 scale), Barnyardgrass” value ([1]; POSTEMERGENCE, Rate 50 g/ha) is reported as 3, the “Plant response rating (0 to 10 scale), Barnyardgrass” value ([1]; POSTEMERGENCE, Rate 100 g/ha) is reported as 3 and the “Plant response rating, Barnyardgrass” value ([1]; POSTEMERGENCE, Rate 200 g/ha) is reported as 3. The “Plant response rating, Barnyardgrass” value ([1]; POSTEMERGENCE, Rate 400 g/ha) was 5, the “Plant response rating, Barnyardgrass” value ([1]; PREEMERGENCE, Rate 50 g/ha) was 0 and the “Plant response rating (0 to 10 scale), Barnyardgrass” value ([1]; PREEMERGENCE, Rate 100 g/ha) was 0. The “Plant response rating, Barnyardgrass” value ([1]; PREEMERGENCE, Rate 400 g/ha) was 2, the “Plant response rating, Barnyardgrass” value ([1]; Rate 200 g/ha, PREEMERGENCE) was 0 and the “Plant response rating (0 to 10 scale), Cheatgrass” value ([2]; POSTEMERGENCE, Rate 50 g/ha) was 2. For the same molecule, the “Plant response rating (0 to 10 scale), Cheatgrass” value ([2]; POSTEMERGENCE, Rate 100 g/ha) was 2, the “Plant response rating, Cheatgrass” value ([2]; POSTEMERGENCE, Rate 200 g/ha) was 3 and the “Plant response rating, Cheatgrass” value ([2]; POSTEMERGENCE, Rate 400 g/ha) was 4. For the same molecule, the “Plant response rating, Cheatgrass” value ([2]; PREEMERGENCE, Rate 50 g/ha) was 0, the “Plant response rating (0 to 10 scale), Cheatgrass” value ([2]; PREEMERGENCE, Rate 100 g/ha) was 0 and the “Plant response rating, Cheatgrass” value ([2]; PREEMERGENCE, Rate 400 g/ha) was 0. For the same molecule, the “Plant response rating, Cheatgrass” value ([2]; Rate 200 g/ha, PREEMERGENCE) was 0, the “Plant response rating (0 to 10 scale), Chickweed” value ([3]; POSTEMERGENCE, Rate 50 g/ha) was 1 and the “Plant response rating (0 to 10 scale), Chickweed” value ([3]; POSTEMERGENCE, Rate 100 g/ha) was 2. The “Plant response rating, Chickweed” value ([3]; POSTEMERGENCE, Rate 200 g/ha) was 2, the “Plant response rating, Chickweed” value ([3]; POSTEMERGENCE, Rate 400 g/ha) was 2 and the “Plant response rating, Chickweed” value ([3]; PREEMERGENCE, Rate 50 g/ha) was 0. For the same molecule, the “Plant response rating (0 to 10 scale), Chickweed” value ([3]; PREEMERGENCE, Rate 100 g/ha) was 0, the “Plant response rating, Chickweed” value ([3]; PREEMERGENCE, Rate 400 g/ha) was 0 and the “Plant response rating, Chickweed” value ([3]; Rate 200 g/ha, PREEMERGENCE) was 0. For the same molecule, the “Plant response rating (0 to 10 scale), Corn” value ([4]; POSTEMERGENCE, Rate 50 g/ha) was 3, the “Plant response rating (0 to 10 scale), Corn” value ([4]; POSTEMERGENCE, Rate 100 g/ha) was 3 and the “Plant response rating, Corn” value ([4]; POSTEMERGENCE, Rate 200 g/ha) was 4. For the same molecule, the “Plant response rating, Corn” value ([4]; POSTEMERGENCE, Rate 400 g/ha) was 4, the “Plant response rating, Corn” value ([4]; PREEMERGENCE, Rate 50 g/ha) was 0 and the “Plant response rating (0 to 10 scale), Corn” value ([4]; PREEMERGENCE, Rate 100 g/ha) was 0. For the same molecule, the “Plant response rating, Corn” value ([4]; PREEMERGENCE, Rate 400 g/ha) was 0, the “Plant response rating, Corn” value ([4]; Rate 200 g/ha, PREEMERGENCE) was 0 and the “Plant response rating (0 to 10 scale), Crabgrass” value ([5]; POSTEMERGENCE, Rate 50 g/ha) was 3. The “Plant response rating (0 to 10 scale), Crabgrass” value ([5]; POSTEMERGENCE, Rate 100 g/ha) was 3, the “Plant response rating, Crabgrass” value ([5]; POSTEMERGENCE, Rate 200 g/ha) was 7 and the “Plant response rating, Crabgrass” value ([5]; POSTEMERGENCE, Rate 400 g/ha) was 7. For the same molecule, the “Plant response rating, Crabgrass” value ([5]; PREEMERGENCE, Rate 50 g/ha) was 0, the “Plant response rating (0 to 10 scale), Crabgrass” value ([5]; PREEMERGENCE, Rate 100 g/ha) was 0 and the “Plant response rating, Crabgrass” value ([5]; Rate 200 g/ha, PREEMERGENCE) was 0. The “Plant response rating, Giant foxtail” value ([6]; POSTEMERGENCE, Rate 50 g/ha) was 4, the “Plant response rating (0 to 10 scale), Giant foxtail” value ([6]; POSTEMERGENCE) was 4 and the “Plant response rating, Giant foxtail” value ([6]; POSTEMERGENCE, Rate 200 g/ha) was 5. The “Plant response rating, Giant foxtail” value ([6]; POSTEMERGENCE, Rate 400 g/ha) was 6, the “Plant response rating, Giant foxtail” value ([6]; PREEMERGENCE, Rate 50 g/ha) was 0 and the “Plant response rating (0 to 10 scale), Giant foxtail” value ([6]; PREEMERGENCE) was 0. The “Plant response rating, Giant foxtail” value ([6]; PREEMERGENCE, Rate 400 g/ha) was 7, the “Plant response rating, Giant foxtail” value ([6]; Rate 200 g/ha, PREEMERGENCE) was 0 and the “Plant response rating, Morningglory” value ([7]; POSTEMERGENCE, Rate 50 g/ha) was 9. The “Plant response rating (0 to 10 scale), Morningglory” value ([7]; POSTEMERGENCE) was 9, the “Plant response rating, Morningglory” value ([7]; POSTEMERGENCE, Rate 200 g/ha) was 9 and the “Plant response rating, Morningglory” value ([7]; POSTEMERGENCE, Rate 400 g/ha) was 9. The “Plant response rating, Morningglory” value ([7]; PREEMERGENCE, Rate 50 g/ha) was 0, the “Plant response rating (0 to 10 scale), Morningglory” value ([7]; PREEMERGENCE) was 0 and the “Plant response rating, Morningglory” value ([7]; PREEMERGENCE, Rate 400 g/ha) was 2. The “Plant response rating, Morningglory” value ([7]; Rate 200 g/ha, PREEMERGENCE) was 0, the “Plant response rating, Rape” value ([8]; POSTEMERGENCE, Rate 50 g/ha) was 5 and the “Plant response rating (0 to 10 scale), Rape” value ([8]; POSTEMERGENCE) was 3. The “Plant response rating, Rape” value ([8]; POSTEMERGENCE, Rate 200 g/ha) was 9, the “Plant response rating, Rape” value ([8]; POSTEMERGENCE, Rate 400 g/ha) was 9 and the “Plant response rating, Rape” value ([8]; PREEMERGENCE, Rate 50 g/ha) was 0. The “Plant response rating (0 to 10 scale), Rape” value ([8]; PREEMERGENCE) was 0, the “Plant response rating, Rape” value ([8]; PREEMERGENCE, Rate 400 g/ha) was 0 and the “Plant response rating, Rape” value ([8]; Rate 200 g/ha, PREEMERGENCE) was 0. For the same molecule, the “Plant response rating, Velvetleaf” value ([9]; POSTEMERGENCE, Rate 50 g/ha) was 9, the “Plant response rating (0 to 10 scale), Velvetleaf” value ([9]; POSTEMERGENCE, Rate 100 g/ha) was 8 and the “Plant response rating, Velvetleaf” value ([9]; POSTEMERGENCE, Rate 200 g/ha) was 8. The “Plant response rating, Velvetleaf” value ([9]; POSTEMERGENCE, Rate 400 g/ha) was 9, the “Plant response rating, Velvetleaf” value ([9]; PREEMERGENCE, Rate 50 g/ha) was 0 and the “Plant response rating, Velvetleaf” value ([9]; PREEMERGENCE, Rate 400 g/ha) was 4. For the same molecule, the “Plant response rating, Velvetleaf” value ([9]; Rate 200 g/ha, PREEMERGENCE) was 0.
